ChEMBL document CHEMBL1123070, “Conformational properties of central nervous system active thyrotropin releasing hormone analogues: probing structure-activity relationships at the molecular level” (1985)

Organism: Mus musculus
Test: Relative CNS activity against reserpine hypothermia in mice relatived to TRH
Type: functional, Central nervous system

| SMILES | Relative activity |
| --- | --- |
| NC(=O)[C@H]1CCCN1C(=O)[C@H](Cc1c[nH]cn1)NC(=O)c1nc(O)nc(O)c1Br | 0.7 |
| CCc1c(O)nc(O)nc1C(=O)N[C@@H](Cc1c[nH]cn1)C(=O)N1CCC[C@@H]1C(N)=O | 0.09 |
| CC1SCC(C(=O)N[C@@H](Cc2c[nH]cn2)C(=O)N2CCC[C@@H]2C(N)=O)NC1=O (stereo partly specified) | 83 |
| CCCc1c(O)nc(O)nc1C(=O)N[C@@H](Cc1c[nH]cn1)C(=O)N1CCC[C@@H]1C(N)=O | 0.8 |
| C[C@@H]1SCC(C(=O)N[C@@H](Cc2c[nH]cn2)C(=O)N2CCC[C@@H]2C(N)=O)NC1=O (stereo partly specified) | 17 |
| NC(=O)[C@@H]1CCCN1C(=O)[C@@H](Cc1c[nH]cn1)NC(=O)[C@@H]1CSC(=O)N1 | 0.8 |
